Values after ≈ are worked out from the molar mass of the structure shown. Values joined by “and” are separate entries in the source; they are usually repeats but may differ in a detail not shown here. Identical values can stand only once. Like-named read-outs stand apart in the source and are kept apart here.
Experiments:
[1] = Cytotoxicity, MTT reduction assay; format: cell-based; settings: African green monkey, 48 hr
Description: The cytotoxicity of active compounds to mammalian cells was assessed using the MTT reduction assay (Mosmann, 1983). Vero and BSC‐40 cells were seeded in 96‐well plates (8 × 10^4 cells per well) and incubated at 37°C and 5% CO2 atmosphere. After 24 hr of incubation, 200 μL of fresh medium containing a serial dilution of compounds (10–1.25 μg/ml) were added to the plates. After 48 hr of incubation in the same conditions, 100 μL of MTT solution in MEM or DMEM (5 mg/ml) was added to each well and incubated for 3 hr at 37°C and 5% CO2 atmosphere. The medium was removed and 100 μL of DMSO was used to solubilize formazan crystals. Absorbance at 570 nm of each well was read using a spectrophotometer (VersaMax, Molecular Devices).

MRSA strains = experiment: MIC, broth microdilution, MRSA strains taken together; format: cell-based; settings: Staphylococcus aureus; over the six MRSA strains (CPD18: four out of six); read-out: MIC against MRSA strains
Description: (§1) The antibacterial activity of the compounds was evaluated using the broth microdilution method in 96‐well microplates according to the Clinical and Laboratory Standards Institute protocol (CLSI, 2017). First, synthetic compounds were diluted in Mueller Hinton broth (MHB; Oxoid, Thermo Scientific, UK) to concentrations ranging from 20 to 2.5 μg/ml. The same volume of a bacterial suspension containing 10^5 CFU/ml was added to each of the previous solutions, resulting in final compound concentrations from 10 to 1.25 μg/ml. […] All conditions were tested in triplicate and the results shown are representative of three independent assays.

[2] = system: Gram‐positive bacteria (E. faecalis, S. aureus and S. pyogenes); experiment: MIC, broth microdilution, Gram‐positive bacteria taken together; format: cell-based; settings: Staphylococcus aureus; over different bacterial strains, including MRSA where stated; read-out: MIC against Gram‐positive bacteria, summary
Description: as §1

MRSA Strain 5749 [3] = experiment: MIC, broth microdilution; format: cell-based; settings: Staphylococcus aureus, read-out: MIC MRSA Strain 5749
Description: as §1

MRSA Strain 6154 [4] = experiment: MIC, broth microdilution; format: cell-based; settings: Staphylococcus aureus, read-out: MIC MRSA Strain 6154
Description: as §1

[5] = system: Enterococcus faecalis ATCC 29213; experiment: MIC, broth microdilution; format: cell-based
Description: as §1

MRSA Strain 5912 [6] = experiment: MIC, broth microdilution; format: cell-based; settings: Staphylococcus aureus, read-out: MIC MRSA Strain 5912
Description: as §1

[7] = system: Streptococcus pyogenes ATCC 19615; experiment: MIC, broth microdilution; format: cell-based; settings: for MIC: Streptococcus pyogenes, ATCC19615
Description: as §1

[8] = system: Staphylococcus aureus ATCC 29212; experiment: MIC, broth microdilution; format: cell-based; settings: for MIC: Staphylococcus aureus, ATCC29212
Description: as §1

MRSA Strain 6100 [9] = experiment: MIC, broth microdilution; format: cell-based; settings: Staphylococcus aureus, read-out: MIC MRSA Strain 6100
Description: as §1

MRSA Strain 6613 [10] = experiment: MIC, broth microdilution; format: cell-based; settings: Staphylococcus aureus, read-out: MIC MRSA Strain 6613
Description: as §1

MRSA Strain 5749 [11] = experiment: MBC, plating of wells without growth; format: cell-based; settings: Staphylococcus aureus
Description: (§2) After incubation at 35°C for 24 hr, the colonies were counted and the percentage of inhibition was calculated. MBC is defined as the lowest compound's concentration that inhibits at least 99.9% of the bacterial cell count compared to nontreated viability control (Clinical and Laboratory Standards Institute, 1999).

MRSA Strain 6154 [12] = experiment: MBC, plating of wells without growth; format: cell-based; settings: Staphylococcus aureus
Description: as §2

S. pyogenes ATCC 19615 = experiment: MBC, plating of wells without growth; format: cell-based; settings: Streptococcus pyogenes, ATCC19615; at least 99.9% inhibition of cell count
Description: as §2

MRSA Strain 5912 [13] = experiment: MBC, plating of wells without growth; format: cell-based; settings: Staphylococcus aureus
Description: as §2

S. aureus ATCC 29212 = experiment: MBC, plating of wells without growth; format: cell-based; settings: Staphylococcus aureus, ATCC29212; at least 99.9% inhibition of cell count
Description: as §2

MRSA Strain 6100 [14] = experiment: MBC, plating of wells without growth; format: cell-based; settings: Staphylococcus aureus
Description: as §2

MRSA Strain 6613 [15] = experiment: MBC, plating of wells without growth; format: cell-based; settings: Staphylococcus aureus
Description: as §2

MRSA = system: MRSA; design: method as in Baltch, Ritz, Bopp, Michelsen, & Smith, 2007; settings: antimicrobials used in the clinic; ref Baltch, Ritz, Bopp, Michelsen, & Smith, 2007; cited from earlier work
MRSA ATCC 43300 = experiment: MIC, broth microdilution; format: cell-based; settings: Staphylococcus aureus, read-out: MIC MRSA ATCC 43300
Description: as §1

E. faecalis = system: E. faecalis; design: method as in CLSI, 2017; settings: antimicrobials in clinical use; ref CLSI, 2017; cited from earlier work
S. aureus = system: S. aureus; design: method as in CLSI, 2017; settings: antimicrobials in clinical use; ref CLSI, 2017; cited from earlier work
[16] = 24 hr, 35°C, read-out: MIC Streptococcus pyogenes ATCC 19615
[17] = 24 hr, 35°C, read-out: MIC Staphylococcus aureus ATCC 29212

SMILES: NC(COc1ccc2ccccc2c1)COc1ccc2ccccc2c1 [CPD21]
- CC50 at 48 h ([1]; BSC-40 cells, BSC‐40, MTT, read-out: CC50): 5.06 ± 1.13 µg/mL
- CC50 at 48 h ([1]; BSC-40 cells, BSC‐40, MTT, read-out: CC50 ± SD): 13.3 ± 2.97 µM
- CC50 at 48 h ([1]; Vero cells, MTT, read-out: CC50 ± SD): 11.3 ± 2.58 µM
- MIC (MRSA strains): 5 µg/mL to 10 µg/mL and 13.2 µM to 26.3 µM
- MIC [2]: 10 µg/mL and 26.3 µM
- MIC (MRSA Strain 5749 [3]; clinical strain): 26.3 µM (≈ 9.04 µg/mL)
- MIC (MRSA Strain 6154 [4]; clinical strain): 26.3 µM (≈ 9.04 µg/mL)
- Antibacterial activity in initial screening, E. faecalis ([5]; concentration of 10 μg/ml): not observed
- MIC (MRSA Strain 5912 [6]; clinical strain): 13.2 µM (≈ 4.52 µg/mL)
- MIC [7, 16]: 26.3 µM
- MIC ([7]; read-out: MIC against S. pyogenes): 10 µg/mL
- Antibacterial activity in initial screening, S. pyogenes ([7]; concentration of 10 μg/ml): showed activity
- MIC [8, 17]: 26.3 µM
- MIC ([8]; read-out: MIC against S. aureus): 10 µg/mL
- Antibacterial activity in initial screening, S. aureus ([8]; concentration of 10 μg/ml): showed activity
- MIC (MRSA Strain 6100 [9]; clinical strain, — = no activity up to 10 μg/ml): 26.3 µM (≈ 9.04 µg/mL)
- MIC (MRSA Strain 6613 [10]; clinical strain): 26.3 µM (≈ 9.04 µg/mL)
- MBC (MRSA Strain 5749 [11]): 26.3 µM (≈ 9.04 µg/mL)
- MBC (MRSA Strain 6154 [12]): 26.3 µM (≈ 9.04 µg/mL)
- MBC (S. pyogenes ATCC 19615): 26.3 µM (≈ 9.04 µg/mL)
- MBC (MRSA Strain 5912 [13]): 13.2 µM (≈ 4.52 µg/mL)
- MBC (S. aureus ATCC 29212): 26.3 µM (≈ 9.04 µg/mL)
- MBC (MRSA Strain 6100 [14]): 26.3 µM (≈ 9.04 µg/mL)
- MBC (MRSA Strain 6613 [15]): 26.3 µM (≈ 9.04 µg/mL)

SMILES: OC(COc1ccc(Cl)c(Cl)c1)COc1ccc(Cl)c(Cl)c1 [CPD29, 1,3‐Bis(3,4‐dichlorophenoxy)propan‐2‐ol]
- melting point: 103.4 to 105.7 °C

SMILES: CS(=O)(=O)OC(COc1ccc(Cl)c(Cl)c1)COc1ccc(Cl)c(Cl)c1 [CPD30, 1,3‐Bis(3,4‐dichlorophenoxy)propan‐2‐yl methanesulfonate]
- melting point: 83.7 to 84.4 °C

SMILES: [N-]=[N+]=NC(COc1ccc(Cl)c(Cl)c1)COc1ccc(Cl)c(Cl)c1 [CPD31, 1,3‐Bis(3,4‐dichlorophenoxy)propan‐2‐yl azide]
- melting point: 95.6 to 96.3 °C

SMILES: Clc1ccc(OCC(COc2ccc(Cl)cc2)N2CCOCC2)cc1 [CPD34, 4‐(1,3‐Bis(4‐chlorophenoxy)propan‐2‐yl)morpholine]
- melting point: 62.6 to 64.8 °C

SMILES: Cc1ccc(S(=O)(=O)OC(COc2ccc(Cl)cc2)COc2ccc(Cl)cc2)cc1 [CPD39, 1,3‐bis(4‐chlorophenoxy)propan‐2‐yl 4‐methylbenzenesulfonate]
- melting point: 145.3 to 147.2 °C

SMILES: CC1(C)S[C@@H]2[C@H](NC(=O)Cc3ccccc3)C(=O)N2[C@H]1C(=O)O [Penicillin G, reference compound]
- MIC ([5]; Enterococcus faecalis, ATCC29213, 24 hr, 35°C, — = no activity up to 10 μg/ml, read-out: MIC Enterococcus faecalis ATCC 29213): 5.98 µM (≈ 2 µg/mL)
- MIC [7, 16]: 0.24 µM
- MIC [8, 17]: 0.06 µM

SMILES: CN[C@H](CC(C)C)C(=O)N[C@H]1C(=O)N[C@@H](CC(N)=O)C(=O)N[C@H]2C(=O)N[C@H]3C(=O)N[C@H](C(=O)N[C@H](C(=O)O)c4cc(O)cc(O)c4-c4cc3ccc4O)[C@H](O)c3ccc(c(Cl)c3)Oc3cc2cc(c3O[C@@H]2O[C@H](CO)[C@@H](O)[C@H](O)[C@H]2O[C@H]2C[C@](C)(N)[C@H](O)[C@H](C)O2)Oc2ccc(cc2Cl)[C@H]1O [Vancomycin, reference compound]
- MIC MRSA (MRSA): 2 µg/mL (≈ 1.38 µM)
- MIC (MRSA Strain 5749 [3]): 1.38 µM (≈ 2 µg/mL)
- MIC (MRSA Strain 6154 [4]): 1.38 µM (≈ 2 µg/mL)
- MIC (MRSA Strain 5912 [6]): 1.38 µM (≈ 2 µg/mL)
- MIC (MRSA ATCC 43300): 1.38 µM (≈ 2 µg/mL)
- MIC (MRSA Strain 6100 [9]): 1.38 µM (≈ 2 µg/mL)
- MIC (MRSA Strain 6613 [10]): 1.38 µM (≈ 2 µg/mL)
- MIC E. faecalis (E. faecalis): 1 to 4 µg/mL
- MIC S. aureus (S. aureus): 0.5 to 2 µg/mL

SMILES: NCC[C@H](O)C(=O)N[C@@H]1C[C@H](N)[C@@H](O[C@H]2O[C@H](CN)[C@@H](O)[C@H](O)[C@H]2O)[C@H](O)[C@H]1O[C@H]1O[C@H](CO)[C@@H](O)[C@H](N)[C@H]1O [amikacin]
- MIC E. faecalis (E. faecalis): 64 to 256 µg/mL
- MIC S. aureus (S. aureus): 1 to 4 µg/mL

SMILES: CC1(C)S[C@@H]2[C@H](NC(=O)C(C(=O)O)c3ccccc3)C(=O)N2[C@H]1C(=O)O (stereo partly shown) [carbenicillin]
- MIC E. faecalis (E. faecalis): 16 to 64 µg/mL
- MIC S. aureus (S. aureus): 2 to 8 µg/mL

SMILES: CC(C)(O/N=C(\C(=O)N[C@@H]1C(=O)N2C(C(=O)[O-])=C(C[n+]3ccccc3)CS[C@H]12)c1csc(N)n1)C(=O)O [ceftazidime]
- MIC S. aureus (S. aureus): 4 to 16 µg/mL

SMILES: O=C(N[C@H](CO)[C@H](O)c1ccc([N+](=O)[O-])cc1)C(Cl)Cl [chloramphenicol]
- MIC E. faecalis (E. faecalis): 4 to 16 µg/mL
- MIC S. aureus (S. aureus): 2 to 16 µg/mL

SMILES: CCCCCCCCCC(=O)N[C@@H](Cc1c[nH]c2ccccc12)C(=O)N[C@H](CC(N)=O)C(=O)N[C@@H](CC(=O)O)C(=O)N[C@@H]1C(=O)NCC(=O)N[C@@H](CCCN)C(=O)N[C@@H](CC(=O)O)C(=O)N[C@H](C)C(=O)N[C@@H](CC(=O)O)C(=O)NCC(=O)N[C@H](CO)C(=O)N[C@@H]([C@H](C)CC(=O)O)C(=O)N[C@@H](CC(=O)c2ccccc2N)C(=O)O[C@@H]1C [daptomycin]
- MIC MRSA (MRSA): 0.5 µg/mL (≈ 0.309 µM)

SMILES: CNC(C)C1CCC(N)C(OC2C(N)CC(N)C(OC3OCC(C)(O)C(NC)C3O)C2O)O1 (stereo not shown) [gentamicin]
- MIC MRSA (MRSA): 128 µg/mL (≈ 268 µM)

SMILES: NC[C@H]1O[C@H](O[C@H]2[C@H](O)[C@@H](O[C@H]3O[C@H](CO)[C@@H](O)[C@H](N)[C@H]3O)[C@H](N)C[C@@H]2N)[C@H](O)[C@@H](O)[C@@H]1O [kanamycin]
- MIC E. faecalis (E. faecalis): 16 to 64 µg/mL
- MIC S. aureus (S. aureus): 1 to 4 µg/mL

SMILES: CC(=O)NC[C@H]1CN(c2ccc(N3CCOCC3)c(F)c2)C(=O)O1 [linezolid]
- MIC E. faecalis (E. faecalis): 1 to 4 µg/mL
- MIC S. aureus (S. aureus): 1 to 4 µg/mL

SMILES: COc1cccc(OC)c1C(=O)N[C@@H]1C(=O)N2[C@@H]1SC(C)(C)[C@@H]2C(=O)O [methicillin]
- MIC E. faecalis (E. faecalis): > 16 µg/mL

SMILES: Cc1onc(-c2ccccc2)c1C(=O)N[C@@H]1C(=O)N2[C@@H]1SC(C)(C)[C@@H]2C(=O)O [oxacillin]
- MIC MRSA (MRSA): 16 µg/mL (≈ 39.9 µM)

SMILES: CCN1CCN(C(=O)N[C@@H](C(=O)N[C@@H]2C(=O)N3[C@@H]2SC(C)(C)[C@@H]3C(=O)O)c2ccccc2)C(=O)C1=O [piperacillin]
- MIC E. faecalis (E. faecalis): 1 to 4 µg/mL
- MIC S. aureus (S. aureus): 1 to 4 µg/mL

Reference: paper PMC6855212, “Antibacterial activity of synthetic 1,3‐bis(aryloxy)propan‐2‐amines against Gram‐positive bacteria” (MicrobiologyOpen, 2019)
